# Measured values: patent US20220244245A1, “A METHOD OF PROFILING THE ENERGETIC METABOLISM OF A POPULATION OF CELLS” (INSERM (Institut National de la Santé et de la Recherche …, priority 2019, published 2022)
# Key:
# [1] = tested on: Flt3L-bmDC; assay: ZENITH: protein synthesis (puromycin incorporation, flow cytometry) in Flt3L-bmDC subsets, WT and PERK KO; assay type: cell-based, mouse; conditions: short 2-DG treatment; DC subsets from WT PERKflox/flox and CD11c-CRE PERKflox/flox (PERK KO)
# Method: Mouse splenocytes from WT C57BL/6J (Jackson) or PERK KO C57BL/6J background mice (Zhang et al., 2002) were cultured in DMEM containing 5% of Fetal Calf Serum (FCS) and 50 μM of 2-Mercaptoethanol (Mouse cells culture media, MCCM) at 37° C. 5% of CO2 GM-CSF BM-derived dendritic cells (GM-bmDCs) were differentiated in vitro from the bone marrow of 6-8-week-old male mice, using GM-CSF, produced by J558L cells. Bone marrow progenitors were plated at 0.8×10^6 cells/ml, 5 ml/well in 6-well plates, and cultivated with RPMI (GIBCO), 5% FCS (Sigma-Aldrich), 20 μg/ml gentamycin (Sigma-Aldrich), 50 μM β-mercaptoethanol (VWR), and GM-CSF. The medium was replaced every 2 days; BM-derived DCs were used for experiments at day 6. Similarly, FLT3L BM-derived dendritic cells (FLT3L-bmDCs) were differentiated by adding FLT3L to RPMI, 10% of Fetal Calf Serum (FCS) and 50 μM of 2-Mercaptoethanol (Mouse cells culture media, MCCM) during 6 days at 37° C. 5% of CO2. To obtain splenocytes, eight weeks old wild type C57BL/6J mice were sacrificed by cervical dislocation and splenectomized. Single cells suspentions from the spleens were generated and cultured in MCCM as previously described. […]
# Flow cytometry was conducted using BD LSR II and BD LSR Fortessa X-20 machine (BD Biosciences™) and data were analyzed with FlowJo (Tree Star™) and/or Cytobank. […]
# [2] = tested on: MEFs; assay: ATP measurement (Cell titer-Glo luminescence) in MEFs; assay type: cell-based, mouse
# Method: 20×104 MEFs were seeded in 100 µl of 5% FCS DMEM culture media ON in opaque 96 well plates. After, 100 ul of Cell titer-Glo luminiscence ATP reconstituted buffer and substrate (Promega, Cat. No. G7570) was added to each well and Luminiscence was measured after 10 minutes following manufacturer instructions. A standard curve with ATP was performed using the same kit and following manufacturer instructions.
structure (smiles),measurement,setting,value
"O=CC[C@@H](O)[C@H](O)[C@H](O)CO [2-DG, 2-Deoxy-D-Glucose]",protein synthesis in response to 2-DG,[1],decrease protein synthesis
"C[C@@H]1C[C@@H]([C@H](O)CC2CC(=O)NC(=O)C2)C(=O)[C@@H](C)C1 [CHX, Cycloheximide]",pool of ATP,"[2]; MEFs, added on top of Oligo+2-DG, 5 minutes of treatment, compared to Oligo+2-DG treatment (Co), FIG. 2A",significantly higher
CC[C@H]1/C=C/C=C/C[C@@H](C)[C@H](O)[C@@](C)(O)C(=O)[C@@H](C)[C@H](O)[C@@H](C)C(=O)[C@@H](C)[C@H](O)[C@@H](C)/C=C/C(=O)O[C@@H]2[C@H](C)[C@H](CC1)O[C@]1(CC[C@H](C)[C@H](C[C@@H](C)O)O1)[C@H]2C [Oligomycin],levels of ATP,"[2]; MEFs treated 20-30 minutes with the metabolic inhibitor, FIGS. 3A and 3B",unchanged
